Measured values: PubChem BioAssay (NCI)
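The compound was tested at five concentrations on cells cultured in 96-well plates, with a 48-hour exposure period. Abbreviation: GI50, concentration required for 50% inhibition of growth. TGI marks complete inhibition of growth.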

Columns and labels:
Assay in all cases: DTP human tumour cell line panel, 48 h
HOP-92 NSCLC = test system: HOP-92 NSCLC
OVCAR-8 ovarian = test system: OVCAR-8 ovarian
EKVX NSCLC = test system: EKVX NSCLC
SF-295 CNS = test system: SF-295 CNS
SK-OV-3 ovarian = test system: SK-OV-3 ovarian
LOX IMVI melanoma = test system: LOX IMVI melanoma
MOLT-4 leukemia = test system: MOLT-4 leukemia
UACC-257 melanoma = test system: UACC-257 melanoma
KM12 colon = test system: KM12 colon
RXF 393 renal = test system: RXF 393 renal

SMILES	TGI (HOP-92 NSCLC)	TGI (OVCAR-8 ovarian)	TGI (EKVX NSCLC)	TGI (SF-295 CNS)	TGI (SK-OV-3 ovarian)	TGI (LOX IMVI melanoma)	TGI (MOLT-4 leukemia)	TGI (UACC-257 melanoma)	TGI (KM12 colon)	GI50 (HOP-92 NSCLC)	GI50 (KM12 colon)	GI50 (OVCAR-8 ovarian)	GI50 (EKVX NSCLC)	GI50 (SF-295 CNS)	GI50 (SK-OV-3 ovarian)	GI50 (LOX IMVI melanoma)	GI50 (MOLT-4 leukemia)	GI50 (UACC-257 melanoma)	TGI (RXF 393 renal)	GI50 (RXF 393 renal)
CSC(SC)(C(=O)O)c1cc(-c2c(Cl)cccc2Cl)no1	> 100 µM	> 100 µM	> 100 µM	> 100 µM	> 100 µM	> 100 µM	> 100 µM	> 100 µM	–	–	–	–	–	–	–	–	–	–	–	–
Cc1cn(C2CC(OC(=O)c3ccc(Cl)cc3)C(COC(=O)c3ccc(Cl)cc3)O2)c(=O)[nH]c1=O (stereo not drawn)	> 100 µM	> 100 µM	> 100 µM	> 100 µM	> 100 µM	> 100 µM	> 100 µM	> 100 µM	> 100 µM	–	–	–	–	–	–	–	–	–	–	–
Cc1cc(Cl)ccc1OCC(=O)Nc1nc2c(Cl)cccc2s1	97.5 µM	29.4 µM	> 100 µM	> 100 µM	> 100 µM	45.6 µM	60.3 µM	> 100 µM	> 100 µM	21 µM	43.5 µM	15.9 µM	> 100000 nM	20800 nM	96.2 µM	9.82 µM	6.94 µM	> 100000 nM	–	–
Cc1ccc(S(=O)(=O)N/N=C2\CCCCC23CCC(=O)NC3)cc1 (stereo not drawn)	–	> 100 µM	–	–	> 100 µM	–	> 100 µM	> 100 µM	> 100 µM	–	–	–	–	–	–	–	–	–	> 100 µM	–
COc1ccc(NC(=O)CC/C(CC(=O)c2ccco2)=N/NC(=O)C(N)=O)cc1	–	> 100 µM	> 100 µM	> 100 µM	> 100 µM	> 100 µM	> 100 µM	> 100 µM	> 100 µM	–	–	–	–	–	–	–	–	–	> 100 µM	–
COc1ccc([C@@]2(O)c3c(ccc(O)c3OC)[C@H]2OC)c(OC)c1	> 100 µM	> 100 µM	> 100 µM	> 100 µM	> 100 µM	–	> 100 µM	> 100 µM	> 100 µM	–	–	–	–	–	–	–	–	–	–	–
COc1ccc2c(c1)C(=O)CCc1cc(OC)c(OC)c(OC)c1-2	–	–	–	> 100 µM	> 100 µM	> 100 µM	35.4 µM	> 100 µM	–	–	< 0.01 µM	< 0.01 µM	–	< 10 nM	–	< 0.01 µM	< 0.01 µM	–	–	–
Cc1ccc(S(=O)(=O)N=Nc2c(O)[nH]c3cc(O)c(C(=O)O)cc23)cc1	–	> 100 µM	> 100 µM	> 100 µM	> 100 µM	> 100 µM	> 100 µM	> 100 µM	> 100 µM	–	–	–	–	–	–	–	–	–	> 100 µM	–
O=NNc1ccc2ccccc2n1	–	> 100 µM	> 100 µM	> 100 µM	> 100 µM	> 100 µM	> 100 µM	> 100 µM	> 100 µM	–	–	–	–	–	–	–	–	–	–	–
CCN(CC)CCNC(Cc1ccccc1)c1ccc(OCc2ccccc2)cc1 (stereo not drawn)	–	24.4 µM	–	4.57 µM	23.6 µM	15.9 µM	13.2 µM	4.85 µM	18.2 µM	–	5.22 µM	10.7 µM	–	2040 nM	10.9 µM	4.19 µM	3.43 µM	2130 nM	18.1 µM	3.83 µM
CC(C)CNc1nc(-c2ccccc2Cl)nc2ccccc12	35.2 µM	38.9 µM	–	28.4 µM	50.1 µM	27.6 µM	54.9 µM	–	64.4 µM	15.6 µM	23.4 µM	17.2 µM	–	14900 nM	21.3 µM	14.5 µM	17.9 µM	–	31.2 µM	15.1 µM
Nc1ncc(-c2cnn(C3CCNCC3)c2)cc1-c1nc2cc(Cl)ccc2o1	2.14 µM	–	–	3.68 µM	3.22 µM	3.07 µM	–	2.59 µM	1.71 µM	0.808 µM	0.392 µM	–	–	1960 nM	1.76 µM	1.55 µM	–	1290 nM	2.92 µM	1.55 µM
CCOC(=O)[CH-]C(=O)C12CC3CC(CC(C3)C1)C2.CCOC(=O)[CH-]C(=O)C12CC3CC(CC(C3)C1)C2.CC[O-].CC[O-].[Ti+4]	> 100 µM	> 100 µM	–	> 100 µM	> 100 µM	> 100 µM	> 100 µM	> 100 µM	> 100 µM	> 100 µM	> 100 µM	> 100 µM	–	> 100000 nM	> 100 µM	> 100 µM	> 100 µM	> 100000 nM	–	–
C=CC[P@]1(=O)O[C@H](c2ccccc2)[C@H](C)N1C	–	> 100 µM	> 100 µM	> 100 µM	> 100 µM	> 100 µM	> 100 µM	–	> 100 µM	–	–	–	–	–	–	–	–	–	> 100 µM	–
COc1ccc2c(c1)OC1=C(C(=O)OC1)C2c1cc(OC)c2c(c1)OCCO2 (stereo not drawn)	> 100 µM	> 100 µM	> 100 µM	> 100 µM	7.33 µM	> 100 µM	> 100 µM	> 100 µM	> 100 µM	0.0629 µM	0.0464 µM	0.0712 µM	68.2 nM	31.2 nM	0.0716 µM	0.0802 µM	0.182 µM	45.8 nM	–	–
